Data: patent US10603325B2, “Methods of treating age-related symptoms in mammals and compositions therefor” (University of Maryland, priority 2014, dated 2020)
Entries after “also recorded” stand apart in the source; their conditions may differ.

Assays:
HGPS cells [1] = test: Senescence: SA-β-gal assay and p16 expression analysis; format: cell-based, human; details: MB-treated vs mock-treated HGPS cells
Protocol: SA-β-gal activity assay was performed according to the manufacturer's protocol (#9860; Cell Signaling). Briefly, fibroblasts cells grown on six-well plate were fixed in 1× fixative solution containing 2% formaldehyde and […] for 10 minutes, and then stained overnight at 37° C. with the (3-galactosidase staining solution at pH 6.0 for 15 hours. Images were acquired by Zeiss AX10 microscope with a SPOT PURSUIT camera.

progerin in HGPS cells = test: Confocal microscopy of progerin distribution; format: cell-based, human; details: MB treated HGPS cells, anti-progerin antibody staining
[2] = test system: normal and HGPS fibroblasts; test: ATP assay; format: cell-based, human; details: MB 100 nM, 5 weeks, vs mock
Protocol: (§1) (Upper panel). Normalized relative HP1α protein levels in each sample are shown in the lower graph.
(§2) To evaluate the effects of MB on mitochondria, ATP levels, mitochondrial superoxide (MitoSOX) and overall intracellular ROS (DCFDA) in Mock or MB-treated cells.
Intracellular ATP content was measured by using luminescence ATP detection System (ATPlite, PerkinElmer). Briefly, fibroblast cells were harvested with 0.05% trypsin-EDTA and counted. The same number of 2,500 cells from each fibroblast sample was seeded onto a 96-well black plate (triplicate). After the cells had been lysed with the lysis buffer for five minutes, the substrate solution was added and mixed for another five minutes to conduct the reaction for light generation. After dark adaption for 10 minutes, the luminescence intensity of each well was acquired at luminescence mode with SoftMax Pro software connecting to SpectraMax M5 Microplate Reader.

[3] = test system: normal and HGPS fibroblasts; test: ROS assays by flow cytometry (MitoSOX, DCFDA); format: cell-based, human
Protocol: as §1, §2
To measure mitochondrial superoxide, MB or other antioxidant treated skin fibroblast cells cultured on 60-mm dishes were incubated with fresh complete medium containing 5 μM MitoSOXRed (Life Technologies) at 37° C. After 30 minutes, stained cells were harvested by trypsin digestion and rinsed twice with PBS. Single cell suspensions in 400 μl PBS were prepared for FACS analysis (FACS Canto II; BD). MitoSOX Red was excited by laser at 488 nm, and the data was collected at 582±21 nm. See results in FIG. 10.
To measure mitochondrial superoxide, cells grown on 60-mm dishes were incubated with fresh complete medium containing 5 μM MitoSOX Red (Life Technologies, M36008) at 37° C. After 30 minutes, stained cells were harvested by trypsin digestion and rinsed twice with PBS. Single cell suspensions in 400 μl PBS were prepared for FACS analysis (FACS Canto II; BD). […] Mitochondrial membrane potential (MMP, Life Technologies, M34152) and Annexin V-positive apoptotic cells (BD Pharmingen, 556547) were measured according to manufacturer's protocol. Flow cytometry was performed by FACS Cantoll (BD) and the data were analyzed by FlowJo Software.

[4] = test system: mitochondria in normal and HGPS fibroblasts; test: TEM scoring of mitochondrial abnormalities; format: cell-based, human; details: MB 100 nM, 8 weeks
Protocol: as §1, §2
(§3) Passage-matched normal or HGPS skin fibroblasts were grown on 35-mm glass bottom dish until 80% confluence. Cells were prepared for transmission electron microscopic analysis following the protocol of McCord et al. Briefly, cells were fixed with 2.5% glutaraldehyde in 0.1 M sodium cacodylate (pH 7.4) for one hour at room temperature. Specimens were washed three times with 0.1 M sodium cacodylate and post-fixed for one hour with 1% osmium tetroxide in 0.1 M sodium cacodylate at room temperature. After washing three times with distilled water, specimens were incubated with 2% aqueous uranyl acetate at room temperature. The specimens were dehydrated in ethanol gradients: 35% for 10min, 50% for 10min, 70% for 10min, for 95% for 10 min, and 100% for 3×5 min. […] Mitochondrial morphological quantification was conducted blindly by a trained TEM expert. Two observers scored over 360 mitochondria from 10 randomly selected cells in each group blindly. […] Over 300 mitochondria in either normal or HGPS lines were blindly scored according to these criteria.

[5] = test system: PGC-1α in normal and HGPS fibroblasts; test: PGC-1α expression (western blot, quantitative RT-PCR); format: cell-based, human; details: MB 100 nM, 8 weeks
HGPS cells [6] = test: Perinuclear heterochromatin (TEM) and HP1α immunostaining/western blotting; format: cell-based, human
Source text: as §1
Based on the results from FIG. 4 and FIGS. 5A-D, it was hypothesized that While MB is a universal mitochondrial-targeting antioxidant for both normal and HGPS cells, it has a specific role in HGPS cells by dislocating progerin away from the nuclear membrane. Previous studies reported that the anchorage of progerin to the nuclear membrane caused a loss of perinuclear heterochromatin in HGPS Cells. […] The rescue of heterochromatin loss by MB was further verified by immunostaining and western blotting using an antibody against heterochromatin protein 1alpha (HP1α).
as §3, with “min. The infiltration was performed in EtOH: EPON resin mixture at various ratio from 1:1, 1:2, 1:3 or complete EPON for one hour each ratio. The specimens were finally embedded in complete EPON at 60° C. over night.” for “min.”

HGPS fibroblasts = test: RNA-seq gene expression differential analysis; format: cell-based, human
Protocol: (§4) FIG. 6(A)-(B): Methylene Blue Rescues Gene Expression in HGPS Cells • (A) Pie chart showing the percentages and (B) the counted gene numbers of unaffected- and affected-genes in paired comparison among four groups (Normal+Vehicle vs. Progeria+Vehicle; Normal+Vehicle vs. Normal+MB; Progeria+Vehicle vs. Progeria+MB; and Normal+Vehicle+Progeria+MB).
(§5) Chromatin re-organization after MB treatment may induce gene expression changes. To examine the effects of MB on gene expression, RNA-seq was conducted in Mock and MB treated normal and HGPS cells, and gene expression differential analysis was performed using Tophat and Cufflinks suite of tools (see Methods). The RNA-seq data was obtained from two biological replicates; each included four groups of samples (Normal+Vehicle; Normal+MB; HGPS+Vehicle; and HGPS+MB). Pairwise comparisons were conducted (FIG. 6A-B). Consistent with previous studies, there are more than 20% differentially expressed genes (up/down: 7.79%/14.18%) in HGPS cells vs. normal fibroblasts (FIG. 6A-1).
(§6) For RNA sequencing experiments, the cell pellets of Normal or HGPS fibroblasts were collected from two individually cultured cells treated with vehicle or 100 nM MB from P15 or P16 to P20. Total RNA was extracted with Trizol (Life Sciences), followed by RNA precipitation with isopropanol, then purified using the RNeasy Mini Kit (Qiagen). The RNA quality was checked using Agilent 2100 Bioanalyzer showing good RIN numbers (8.90=9.70) in all eight samples. The RNA-seq sample preparation and sequencing were conducted according to the Illumina Truseq RNA sample preparation V2 guide by the IBBR Sequencing Core Facility at the University of Maryland. RNA-seq mapping and gene expression differential analysis was performed using Tophat and Cufflinks suite of tools as described previously by Trapnell et al.

normal fibroblasts = test: RNA-seq gene expression differential analysis; format: cell-based, human; details: Normal+Vehicle vs. Normal+MB, 100 nM
Protocol: as §4, §5, §6

skin fibroblast cells = test: Cell viability after H2O2 insults; format: cell-based, human; details: H2O2 1 mM, 60 minutes; low and high concentrations of MB
Protocol: MB or other antioxidant treated skin fibroblast cells were incubated with PBS containing H2O2 at 1 mM for 60 minutes. The cells were then washed three times using PBS and subjected to a cellular stress assay (as described above in 2). See the results obtained in FIG. 11.

Skin tissues = test: Skin hydration test (DPM9003); format: cell-based; details: MB for 2 weeks
Protocol: Skin tissues were treated with MB for 2 weeks, then skin hydration was detected by using DPM9003 with 4 mm probe. […] See the results obtained in FIG. 13. The noted small variations appear to have been due to pressure and leakage of medium.

[7] = test system: EpiDerm Full Thickness (EFT-412); test: ECM gene expression analysis (quantitative PCR array); format: cell-based; details: MB for two weeks
Protocol: The expression of ECM genes were analyzed by quantitative PCR array on EpiDerm Full Thickness (EFT-412).
EFT-412 tissues were treated with MB for 2 weeks. […] Using RCP arrays for ECM remodeling genes. See results obtained in FIG. 14.

[8] = test system: Epiderm Full Thickness (EFT-412) skin tissue; test: Histological analysis (H&E) of skin tissue; format: cell-based; details: MB at various concentration for two weeks
Source text: H&E staining on the MB treated skin tissues. […] See the results obtained in FIG. 15.

[9] = HGPS+Vehicle vs. HGPS+MB, 100 nM

CN(C)c1ccc2nc3ccc(N(C)C)cc3[s+]c2c1.[Cl-] [MB, 3,7-bis(dimethylamino)-phenothiazin-5-ium chloride]
senescence (SA-β-gal, p16 expression) (HGPS cells [1]): younger than the mock-treated cells | progerin distribution in nucleus (progerin in HGPS cells): clear redistribution of progerin from the nuclear rim into the nucleoplasm | ATP production [2]: Significant improvements in ATP production | ROS levels (MitoSOX, DCFDA) ([3]; MB 100 nM, 8 weeks, vs mock): reductions in ROS levels | MitoSOX level (mitochondria specific superoxide) ([3]; four weeks treatment, normal and HGPS fibroblasts, comparison with NAC, MitoQ, MitoTEMPO): significant decrease of MitoSOX level | number of severely defective mitochondria [4]: significant reduction in the number of severely defective mitochondria | expression of PGC-1α [5]: stimulated the expression of PGC-1α | HP1α protein level (HGPS cells [6]; MB 100 nM, 6 weeks): upregulation of HP1α protein level | nuclear HP1α staining (HGPS cells [6]; MB 100 nM, 6 weeks): increase in nuclear HP1α staining | perinuclear heterochromatin organization (TEM) (HGPS cells [6]; MB 8 weeks): readily apparent restoration of perinuclear heterochromatin organization | genes affected by MB, down (HGPS fibroblasts; [9]): 0.45% | genes affected by MB, up (HGPS fibroblasts; [9]): 1.52% | number of differentially expressed genes (HGPS fibroblasts; Normal+Vehicle vs. HGPS+MB, after one month of MB treatment): 1674 | genes with significant expression changes, down (normal fibroblasts): 0.14% | genes with significant expression changes, up (normal fibroblasts): 0.19% | cell viability upon hydrogen peroxide treatment (skin fibroblast cells): significantly improved cell viability | skin hydration (Skin tissues): did not increase skin hydration | normal gene expression (3D skin tests) [7]: little or no effect on normal gene expression | dermis / skin thickness [8]: increase dermis thickness; also recorded: Increases Skin Thickness
